Measured values as given in article PMC8041284, “Tunable Methacrylamides for Covalent Ligand Directed Release Chemistry” (Journal of the American Chemical Society, 2021).
Where two headings read alike, the source gives them in different places.

Molecular target: BTK (Homo sapiens, UniProt Q06187)
Experiment: biochemical
[1] = read-out: BTK inhibition (%), 0.75 uM BTK, […] probe 3l, 15 min preincubation

Chain of BTK (Q06187 402-655 limits assumed): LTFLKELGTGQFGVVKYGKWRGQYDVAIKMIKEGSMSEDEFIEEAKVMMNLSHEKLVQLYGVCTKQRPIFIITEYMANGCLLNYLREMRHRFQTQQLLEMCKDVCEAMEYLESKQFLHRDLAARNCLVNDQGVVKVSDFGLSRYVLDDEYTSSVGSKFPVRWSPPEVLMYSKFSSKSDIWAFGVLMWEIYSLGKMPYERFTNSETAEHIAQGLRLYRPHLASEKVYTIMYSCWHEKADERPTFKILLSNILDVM

| Compound | inhibition at 10 µM [1] | inhibition at 10 µM (read-out: BTK inhibition (%)) |
| --- | --- | --- |
| N#Cc1ccc([C@H]2CCc3cncn32)c(F)c1 [PCM-0215764] | 6.2% |  |
| Nc1ncnc2c1ccn2[C@@H]1O[C@H]([C@H](O)c2ccccc2)[C@@H](O)[C@H]1O [PCM-0215960] | 13.1% |  |
| C[C@@H](CC[C@@]1(O)O[C@H]2C[C@H]3[C@@H]4CC[C@@H]5C[C@@H](O[C@@H]6O[C@H](CO)[C@H](O)[C@H](O)[C@H]6O[C@@H]6O[C@H](CO)[C@@H](O)[C@H](O)[C@H]6O)CC[C@]5(C)[C@H]4CC[C@]3(C)[C@H]2[C@@H]1C)CO[C@@H]1O[C@H](CO)[C@@H](O)[C@H](O)[C@H]1O [PCM-0216516] | -3.9% |  |
| Cc1[nH]c2ccccc2c1C1=C(NCCc2ccc(F)cc2)C(=O)N(C)C1=O [PCM-0215349] | 51.7% |  |
| C#C[C@]1(OC(C)=O)CC[C@H]2[C@@H]3CCC4=C[C@@H](OC(C)=O)CC[C@@H]4[C@H]3CC[C@@]21C [PCM-0214663] | 2.3% |  |
| Cc1nc2ccc(NC(=O)Nc3ccnc4cccnc34)cc2o1 [PCM-0215431] | -18.5% |  |
| COc1cc(C)[nH]c(=O)c1CNC(=O)c1c(C)n([C@H](C)C2CCOCC2)c2ccccc12 [PCM-0214591] |  | -24.7% |
| C=CCNC(N)=S [PCM-0090807] | -18.7% |  |
| C[C@@H](O[C@H]1OCCN(Cc2nn(P(=O)(O)O)c(=O)[nH]2)[C@H]1c1ccc(F)cc1)c1cc(C(F)(F)F)cc(C(F)(F)F)c1 [PCM-0214804] | 10.1% |  |
| C=CC(=O)N1CCN(CCCn2c(=O)c(-c3c(Cl)c(OC)cc(OC)c3Cl)cc3cnc(NC)nc32)CC1 [PCM-0215863] | 6.2% |  |
| O=C[C@H](O)[C@@H](O)[C@H](O[C@H]1O[C@H](CO)[C@@H](O[C@H]2O[C@H](CO)[C@@H](O[C@H]3O[C@H](CO)[C@@H](O)[C@H](O)[C@H]3O)[C@H](O)[C@H]2O)[C@H](O)[C@H]1O)[C@H](O)CO [PCM-0216456] | 0.8% |  |
| CC(C)=CCC[C@](C)(O[C@@H]1O[C@H](CO[C@@H]2O[C@H](CO)[C@@H](O)[C@H](O)[C@H]2O)[C@@H](O)[C@H](O)[C@H]1O)[C@H]1CC[C@]2(C)[C@@H]1[C@H](O)C[C@@H]1[C@@]3(C)CC[C@H](O[C@@H]4O[C@H](CO)[C@@H](O)[C@H](O)[C@H]4O[C@@H]4O[C@H](CO)[C@@H](O)[C@H](O)[C@H]4O)C(C)(C)[C@@H]3CC[C@]12C [PCM-0215030] | -0.7% |  |
| O=C(O)CSCC(=O)NC1CCSC1=O (stereo not drawn) [PCM-0090679] | -10.9% |  |
| CCN[C@H]1CN(CCCOC)S(=O)(=O)c2sc(S(N)(=O)=O)cc21 [PCM-0086056] | -11.7% |  |
| C=CC[N+]1([C@H]2C[C@H]3[C@@H]4CC[C@H]5C[C@H](O)[C@@H](N6CCOCC6)C[C@]5(C)[C@H]4CC[C@]3(C)[C@H]2OC(C)=O)CCCC1 [PCM-0214619] | -24.1% |  |
| C=C1C[C@@]23CC[C@H]4[C@@](C)(CCC[C@@]4(C)C(=O)O[C@@H]4O[C@H](CO)[C@@H](O)[C@H](O)[C@H]4O)[C@@H]2CC[C@]1(O[C@@H]1O[C@H](CO)[C@@H](O)[C@H](O)[C@H]1O[C@@H]1O[C@H](CO)[C@@H](O)[C@H](O)[C@H]1O)C3 [PCM-0216121] | -27.8% |  |
| O=C(O)CCn1c2c(c3ccccc31)C[C@H](NS(=O)(=O)c1ccc(F)cc1)CC2 [PCM-0101878] | -15.4% |  |
| CC[C@@H]1C(=O)N(C)c2cnc(Nc3ccc(C(=O)NC4CCC(N5CCN(CC6CC6)CC5)CC4)cc3OC)nc2N1C(C)C (stereo partly drawn) [PCM-0095279] | -14.5% |  |
| Nc1nc(CC(=O)Nc2ccc(CCNC[C@H](O)c3ccccc3)cc2)cs1 [PCM-0095557] | 3.9% |  |
| CC#CC(=O)Nc1ccc2ncnc(Nc3cccc(Br)c3)c2c1 [PCM-0215449] | 103% |  |
| COC(=O)[C@H](c1ccccc1Cl)N1CCc2sccc2C1 [PCM-0090332] | 2.3% |  |
| Cc1[nH]nc(C(F)(F)F)c1Cc1sc2c(c1C(=O)N1C[C@](C)(O)CO1)c(=O)n(C)c(=O)n2C(C)C [PCM-0215606] | 6.9% |  |
| OC[C@H]1O[C@@H](c2ccc(Cl)c(Cc3ccc(O[C@H]4CCOC4)cc3)c2)[C@H](O)[C@@H](O)[C@@H]1O [PCM-0095610] | 12.4% |  |

| Compound | inhibition at 10 µM [1] | inhibition at 10 µM (read-out: BTK inhibition (%)) |
| --- | --- | --- |
| CC1(C)CC[C@]2(C(=O)O)[C@H](O)C[C@]3(C)C(=CC[C@@H]4[C@@]5(C)CC[C@H](O)[C@@](C)(C=O)[C@@H]5CC[C@]43C)[C@@H]2C1 [PCM-0216608] | -8.5% |  |
| CC(O)=C(C#N)C(=O)Nc1ccc(C(F)(F)F)cc1 [PCM-0214764] | 0% |  |
| Nc1cccc2c1C(=O)N(C1CCC(=O)NC1=O)C2=O (stereo not drawn) [PCM-0095126] | 11% |  |
| CC(C)(C)C(O)/C=C/c1ccc2c(c1)OCO2 (stereo not drawn) [PCM-0216138] | -4.6% |  |
| Cc1c(N[C@@H](c2nnc(-c3ccc(C#N)cc3)o2)[C@H](C)O)ccc(C#N)c1Cl [PCM-0216075] |  | 17.8% |
| COc1ccc(Cl)c(Nc2nc3ccccc3nc2NS(=O)(=O)c2cccc(NC(=O)C(C)(C)N)c2)c1 [PCM-0215473] | 24.1% |  |
| C[C@H]1CNCCCN1S(=O)(=O)c1cccc2cncc(F)c12 [PCM-0215585] | -14.5% |  |
| CCCC(=O)Nc1ccc(OCC(O)CNC(C)C)c(C(C)=O)c1 (stereo not drawn) [PCM-0085895] | -12.5% |  |
| CNc1nc(-c2ccc3c(N)n[nH]c3c2)cc(N2C[C@@H](C(=O)NC3CCCCC3)CC[C@H]2C)n1 [PCM-0095768] | 24.1% |  |
| O=c1c(N=Nc2nccs2)c(-c2ccccc2)[nH]n1-c1nc(-c2ccccc2)cs1 [PCM-0215938] | 98.1% |  |
| CCOC(=O)[C@H](CCc1ccccc1)N[C@@H](C)C(=O)N1Cc2ccccc2C[C@H]1C(=O)O [PCM-0086504] | -16.3% |  |
| Nc1nc2n[nH]nc2c(=O)[nH]1 [PCM-0085758] | 4.7% |  |
| CCCCOc1ccc(C(=O)Nc2ccc(F)cc2F)cc1 [PCM-0095388] | -5.4% |  |
| CC(=O)O[C@@]12CO[C@@H]1C[C@H](O)[C@@]1(C)C(=O)[C@H](O)C3=C(C)[C@@H](OC(=O)[C@H](O)[C@@H](NC(=O)c4ccccc4)c4ccccc4)C[C@@](O)([C@@H](OC(=O)c4ccccc4)[C@H]21)C3(C)C [PCM-0214981] | 9.3% |  |
| COc1ccc(S(=O)(=O)Nc2nc(-c3cccc([N+](=O)[O-])c3)cs2)cc1OC [PCM-0215595] | 7.7% |  |
| NC(=O)c1cccc(N)c1 [PCM-0064562] | -3.9% |  |
| O=C1C[C@@H](c2ccc(O)c(O)c2)Oc2cc(O)cc(O)c21 [PCM-0216409] | 29.3% |  |
| C[C@@H]1O[C@@H](O[C@H]2[C@H](O[C@H]3CC[C@@]4(C)[C@@H](CC[C@]5(C)[C@@H]4CC=C4[C@@H]6CC(C)(C)CC[C@]6(C(=O)O)CC[C@]45C)[C@]3(C)CO)OC[C@H](O)[C@@H]2O)[C@H](O)[C@H](O)[C@H]1O [PCM-0214969] | -10.9% |  |
| CC(C)c1cc2c(c(O)c1O)[C@@]13CCCC(C)(C)[C@@H]1C[C@@H]2OC3=O [PCM-0216410] | 10.8% |  |
| CCNC(=O)Nc1ccc(-c2nc(N3CCOC[C@@H]3C)c3c(n2)C(C)(C)S(=O)(=O)C3)cc1 [PCM-0215744] | -22.8% |  |
| Nc1c2c(nc3ccccc13)CCCC2 [PCM-0064528] | -7.8% |  |
| COc1cc2c(c(OC)c1OC)-c1c(cc3c(c1OC)OCO3)C[C@H](C)[C@](C)(O)[C@H]2OC(=O)c1ccccc1 [PCM-0216060] | 3.9% |  |
| CN(C)c1nc(N(C)C)nc(N(C)C)n1 [PCM-0064404] | 15.9% |  |

| Compound | inhibition at 10 µM [1] | inhibition at 10 µM (read-out: BTK inhibition (%)) |
| --- | --- | --- |
| Cn1cnc([N+](=O)[O-])c1Sc1ncnc2nc[nH]c12 [PCM-0064491] | -4.8% |  |
| CC(C)[C@H](C)[C@@H](O)[C@H](O)[C@@H](C)[C@H]1CC[C@H]2[C@@H]3COC(=O)[C@H]4C[C@H](O)[C@H](O)C[C@]4(C)[C@H]3CC[C@]12C [PCM-0215160] | -10.1% |  |
| Cc1ccn[nH]1 [PCM-0215907] | 4.6% |  |
| COc1cc2ncnc(Nc3ccc(Oc4ccccc4)cc3C)c2cc1OC [PCM-0215704] | 110% |  |
| CC(C)=CCC/C(C)=C\CO [PCM-0216032] | 3.1% |  |
| CCCCN1CCCC[C@H]1C(=O)Nc1c(C)cccc1C [PCM-0214809] | -25.7% |  |
| Cc1c(C(=O)NN2CCCCC2)nn(-c2ccc(Cl)cc2Cl)c1-c1ccc(I)cc1 [PCM-0095445] | 34.2% |  |
| ClCCN(Cc1ccccc1)Cc1ccccc1 [PCM-0216162] |  | -20.1% |
| Oc1ccc2c(c1)OC[C@@H]1c3cc4c(cc3O[C@H]21)OCO4 [PCM-0216297] | -20.1% |  |
| O=C(Nc1cc(C(F)(F)F)cc(C(F)(F)F)c1)c1cc(Cl)ccc1O [PCM-0095509] | 42.8% |  |
| NC12CC3CC(CC(C3)C1)C2 [PCM-0064405] | -14.8% |  |
| CC(C)(Sc1cc(C(C)(C)C)c(O)c(C(C)(C)C)c1)Sc1cc(C(C)(C)C)c(O)c(C(C)(C)C)c1 [PCM-0086112] | 0.8% |  |
| COc1cc2nccc(Oc3ccc(NC(=O)c4cn(C(C)C)c(=O)n(-c5ccc(F)cc5)c4=O)cc3F)c2cc1OC [PCM-0215831] | 12.4% |  |
| Cc1nn(C)c2c1C(c1ccc(C(F)(F)F)cc1)C(C#N)=C(N)O2 (stereo not drawn) [PCM-0215442] | -6.9% |  |
| CS(=O)(=O)N1CCc2c(-c3cnc(N)nc3)nc(N3CCOCC3)nc21 [PCM-0095409] | -5.5% |  |
| CC(C)c1c(-c2ccccc2)nc2c(C#N)c[nH]n2c1=O [PCM-0215735] | 24.7% |  |
| Cc1ccc(C(=O)N(CCCN)[C@@H](c2oc3cc(Cl)ccc3c(=O)c2Cc2ccccc2)C(C)C)cc1 [PCM-0095226] | -2.3% |  |
| CC(C)(F)C[C@H](N[C@@H](c1ccc(-c2ccc(S(C)(=O)=O)cc2)cc1)C(F)(F)F)C(=O)NC1(C#N)CC1 [PCM-0094912] | -23.3% |  |
| COC(=O)c1cc(OC)c(OC)c(OC)c1 [PCM-0215033] | -13.2% |  |
| O=C(CCCCCCC(=O)N/N=C/c1ccc(N(c2ccccc2)c2ccccc2)cc1)NO [PCM-0215937] | 15.4% |  |
| CN(C[C@@H]1COCCO1)S(=O)(=O)Nc1ccc2ccc3ncc(-c4cnn(C)c4)cc3c(=O)c2c1 [PCM-0095338] | 33.1% |  |
| O=C(NOCC1CC1)c1ccc(F)c(F)c1Nc1ccc(I)cc1Cl [PCM-0094919] | 5.5% |  |
| COc1ccc(COc2ccc(Cc3cnc(N)nc3N)cc2OC)cc1 [PCM-0095630] | -7.6% |  |
